Test system: human
Assay: Sensory evaluation of salty taste enhancing activity of capsazepine in human
Format: in vivo
Settings: for strength of salty taste middle and after taste: after 2 seconds; for strength of salty taste middle and after taste / strength of salty taste initial taste: relative to control; for strength of salty taste initial taste: first 2 seconds
Experimental: The presence or absence of a salty taste enhancing activity in human was examined by a quantitative sensory evaluation test for capsazepine having an ENaC activation to action.
The quantitative sensory evaluation test was performed as follows. Distilled water containing sodium chloride (0.8 g/dl) was mixed with capsazepine as a sample at 0.0001 to 0.001 g/dl, and the level of a salty taste enhancing activity was measured. Distilled water containing 0.8 g/dl of sodium chloride was used as a control, and distilled water containing 0.9 g/dl or 1.0 g/dl of sodium chloride was used as a comparison target. Using a linear measurement method, a straight line showing 1.0-fold (0.8 g/dl), 1.13-fold (0.9 g/dl), 1.25-fold (1.0 g/dl) positions of sodium chloride concentration was drawn and the position showing the strength of the corresponding salty taste was put down thereon. As for the sensory evaluation, an average of the positions put down by the panelists was determined, and an increase in the level of salty taste relative to the level of salty taste in the control was indicated as a salty taste enhancing rate (fold). […] The “initial taste” means the evaluation of the strength of the salty taste for 2 seconds after placing in the mouth, and the “middle and after taste” means a combination of middle taste and after taste, which is the evaluation of the strength of the salty taste after 2 seconds from placing in the mouth.

[1] = sample 0.0001 g/dl in 0.8 g/dl sodium chloride
[2] = sample 0.0005 g/dl in 0.8 g/dl sodium chloride
[3] = sample 0.001 g/dl in 0.8 g/dl sodium chloride

Oc1cc2c(cc1O)CN(C(=S)NCCc1ccc(Cl)cc1)CCC2 [capsazepine]
strength of salty taste middle and after taste [1]: 1.05 fold
strength of salty taste initial taste [1]: 1.04 fold
strength of salty taste middle and after taste [2]: 1.08 fold
strength of salty taste initial taste [2]: 1.11 fold
strength of salty taste middle and after taste [3]: 1.11 fold
strength of salty taste initial taste [3]: 1.11 fold
salty taste enhancing activity in human (summary in words of Table 3): has a salty taste enhancing activity in human

— patent US20140004243A1, “SALTY TASTE ENHANCER” (AJINOMOTO CO., INC., priority 2011, published 2014)
